Reference: patent US5057146A (priority 1986, dated 1991)
Like-named read-outs stand apart in the source and are kept apart here.

Assays:
[1] = system: Puccinia recondita; assay: foliar fungal disease control, Puccinia recondita on wheat; format: in vivo
Protocol: (§1) The compounds were tested against a variety of foliar fungal diseases of plants. The technique employed was as follows.
(§2) The plants were grown in John Innes Potting Compost (No 1 or 2) in 4 cm diameter minipots. The test compounds were formulated either by bead milling with aqueous Dispersol T or as a solution in acetone or acetone/ethanol which was diluted to the required concentration immediately before use. […] The sprays were applied to maximum retention and the root drenches to a final concentration equivalent to approximately 40 ppm a.i./dry soil. Tween 20, to give a final concentration of 0.05%, was added when the sprays were applied to cereals.
(§3) For most of the tests the compound was applied to the soil (roots) and to the foliage (by spraying) one or two days before the plant was inoculated with the disease. An exception was the test on Erysiphe graminis in which the plants were inoculated 24 hours before treatment. Foliar pathogens were applied by spray as spore suspensions onto the leaves of test plants. After inoculation, the plants were put into an appropriate environment to allow infection to proceed and then incubated until the disease was ready for assessment. The period between inoculation and assessment varied from four to fourteen days according to the disease and environment.
(§4) The disease control was recorded by the following grading: […]

[2] = system: Erysiphe graminis hordei; assay: foliar fungal disease control, Erysiphe graminis hordei on barley; format: in vivo; conditions: inoculated 24 hours before treatment
Protocol: as §1, §2, §3, §4

[3] = system: Venturia inaequalis; assay: foliar fungal disease control, Venturia inaequalis on apple; format: in vivo
Protocol: as §1, §2, §3, §4

[4] = system: Pyricularia oryzae; format: in vivo, Pyricularia oryzae (rice)
[5] = system: Cercospora arachidicola; assay: foliar fungal disease control, Cercospora arachidicola on peanut; format: in vivo
Protocol: as §1, §2, §3, §4

[6] = system: Plasmopara viticola; assay: foliar fungal disease control, Plasmopara viticola on vine; format: in vivo
Protocol: as §1, §2, §3, §4

[7] = system: Phytophthora infestans; format: in vivo, Phytophthora infestans (tomato)
[8] = 100 ppm foliar spray plus root drench approx. 40 ppm a.i./dry soil

CO/C=C(/C(=O)OC)c1ccccc1S(=O)(=O)c1ccc(Br)cn1 [Compound 2 (Table III), (E)-meth-yl 2-(2'-(5"-bromopyridin-2"-ylsulphonyl)phenyl]-3-methoxyacrylate]
disease control grading, Puccinia recondita (wheat) [1, 8]: 3 (trace-5% of disease on untreated plants) | disease control grading, Erysiphe graminis hordei (barley) [2, 8]: 0 (60-100% of disease on untreated plants) | disease control grading, Venturia inaequalis (apple) [3, 8]: 3 (trace-5% of disease on untreated plants) | disease control grading, Pyricularia oryzae (rice) [4, 8]: 0 (60-100% of disease on untreated plants) | disease control grading, Cercospora arachidicola (peanut) [5, 8]: 0 (60-100% of disease on untreated plants) | disease control grading, Plasmopara viticola (vine) [6, 8]: 0 (60-100% of disease on untreated plants) | disease control grading, Phytophthora infestans (tomato) [7, 8]: 0 (60-100% of disease on untreated plants)

CO/C=C(/C(=O)OC)c1ccccc1Oc1cccc(C(F)(F)F)n1 [Compound 22 (Table I)]
disease control grading, Puccinia recondita (wheat) [1, 8]: 4 | disease control grading, Erysiphe graminis hordei (barley) [2, 8]: 4 | disease control grading, Venturia inaequalis (apple) [3, 8]: 4 | disease control grading, Pyricularia oryzae (rice) [4, 8]: 4 | disease control grading, Cercospora arachidicola (peanut) [5, 8]: 4 | disease control grading, Plasmopara viticola (vine) [6, 8]: 4 | disease control grading, Phytophthora infestans (tomato) [7, 8]: 3 (trace-5% of disease on untreated plants)

CO/C=C(/C(=O)OC)c1ccccc1Oc1ccc2ccccc2n1 [Compound 165 (Table I)]
disease control grading, Puccinia recondita (wheat) [1, 8]: 2 (6-25% of disease on untreated plants) | disease control grading, Erysiphe graminis hordei (barley) [2, 8]: 4 | disease control grading, Venturia inaequalis (apple) [3, 8]: 4 | disease control grading, Pyricularia oryzae (rice) [4, 8]: 2 (6-25% of disease on untreated plants) | disease control grading, Cercospora arachidicola (peanut) [5, 8]: 4 | disease control grading, Plasmopara viticola (vine) [6, 8]: 4 | disease control grading, Phytophthora infestans (tomato) [7, 8]: 3 (trace-5% of disease on untreated plants)

CO/C=C(/C(=O)OC)c1ccccc1Oc1ccc(C)cn1 [Compound 16 (Table I)]
disease control grading, Puccinia recondita (wheat) [1, 8]: 2 (6-25% of disease on untreated plants) | disease control grading, Erysiphe graminis hordei (barley) [2, 8]: 4 | disease control grading, Venturia inaequalis (apple) [3, 8]: 4 | disease control grading, Pyricularia oryzae (rice) [4, 8]: 4 | disease control grading, Cercospora arachidicola (peanut) [5, 8]: 4 | disease control grading, Plasmopara viticola (vine) [6, 8]: 4 | disease control grading, Phytophthora infestans (tomato) [7, 8]: 4

CO/C=C(/C(=O)OC)c1ccccc1Oc1ccc(NC=O)cn1 [Compound 130 (Table I)]
disease control grading, Puccinia recondita (wheat) [1, 8]: 3 (trace-5% of disease on untreated plants) | disease control grading, Erysiphe graminis hordei (barley) [2, 8]: 0 (60-100% of disease on untreated plants) | disease control grading, Venturia inaequalis (apple) [3, 8]: 0 (60-100% of disease on untreated plants) | disease control grading, Pyricularia oryzae (rice) [4, 8]: 0 (60-100% of disease on untreated plants) | disease control grading, Cercospora arachidicola (peanut) [5, 8]: 4 | disease control grading, Plasmopara viticola (vine) [6, 8]: 0 (60-100% of disease on untreated plants) | disease control grading, Phytophthora infestans (tomato) [7, 8]: 0 (60-100% of disease on untreated plants)

CO/C=C(/C(=O)OC)c1ccccc1Oc1ccc(N)cn1 [Compound 131 (Table I)]
disease control grading, Puccinia recondita (wheat) [1, 8]: 3 (trace-5% of disease on untreated plants) | disease control grading, Erysiphe graminis hordei (barley) [2, 8]: 0 (60-100% of disease on untreated plants) | disease control grading, Venturia inaequalis (apple) [3, 8]: 0 (60-100% of disease on untreated plants) | disease control grading, Pyricularia oryzae (rice) [4, 8]: 0 (60-100% of disease on untreated plants) | disease control grading, Cercospora arachidicola (peanut) [5, 8]: 0 (60-100% of disease on untreated plants) | disease control grading, Plasmopara viticola (vine) [6, 8]: 0 (60-100% of disease on untreated plants) | disease control grading, Phytophthora infestans (tomato) [7, 8]: 0 (60-100% of disease on untreated plants)

CO/C=C(/C(=O)OC)c1ccccc1Oc1nccc(Cl)n1 [Compound 61 (Table I), (E)-methyl 2-[2'-(4"-chloropyrimidin-2"-yloxy)phenyl]-3-methoxyacrylate]
disease control grading, Puccinia recondita (wheat) [1, 8]: 3 (trace-5% of disease on untreated plants) | disease control grading, Erysiphe graminis hordei (barley) [2, 8]: 4 | disease control grading, Venturia inaequalis (apple) [3, 8]: 4 | disease control grading, Pyricularia oryzae (rice) [4, 8]: 0 (60-100% of disease on untreated plants) | disease control grading, Cercospora arachidicola (peanut) [5, 8]: 4 | disease control grading, Plasmopara viticola (vine) [6, 8]: 1 (26-59% of disease on untreated plants) | disease control grading, Phytophthora infestans (tomato) [7, 8]: 0 (60-100% of disease on untreated plants)

CO/C=C(/C(=O)OC)c1ccccc1Sc1ccc(Br)cn1 [Compound 15 (Table II), (E)-methyl 2-[2'-(5"-bromopyridin-2"-ylthio)phenyl]-3-methoxyacrylate]
disease control grading, Puccinia recondita (wheat) [1, 8]: 2 (6-25% of disease on untreated plants) | disease control grading, Erysiphe graminis hordei (barley) [2, 8]: 3 (trace-5% of disease on untreated plants) | disease control grading, Venturia inaequalis (apple) [3, 8]: 0 (60-100% of disease on untreated plants) | disease control grading, Pyricularia oryzae (rice) [4, 8]: 0 (60-100% of disease on untreated plants) | disease control grading, Cercospora arachidicola (peanut) [5, 8]: 1 (26-59% of disease on untreated plants) | disease control grading, Plasmopara viticola (vine) [6, 8]: 4 | disease control grading, Phytophthora infestans (tomato) [7, 8]: 0 (60-100% of disease on untreated plants)

CO/C=C(/C(=O)OC)c1ccccc1Oc1cccc(C)n1 [Compound 21 (Table I)]
disease control grading, Puccinia recondita (wheat) [1, 8]: 3 (trace-5% of disease on untreated plants) | disease control grading, Erysiphe graminis hordei (barley) [2, 8]: 4 | disease control grading, Venturia inaequalis (apple) [3, 8]: 4 | disease control grading, Pyricularia oryzae (rice) [4, 8]: 4 | disease control grading, Cercospora arachidicola (peanut) [5, 8]: 4 | disease control grading, Plasmopara viticola (vine) [6, 8]: 4 | disease control grading, Phytophthora infestans (tomato) [7, 8]: 3 (trace-5% of disease on untreated plants)

CO/C=C(/C(=O)OC)c1ccccc1Oc1cc(C(F)(F)F)ccn1 [Compound 11 (Table I)]
disease control grading, Puccinia recondita (wheat) ([1]; 25 ppm foliar spray only): 3 (trace-5% of disease on untreated plants) | disease control grading, Erysiphe graminis hordei (barley) ([2]; 25 ppm foliar spray only): 4 | disease control grading, Venturia inaequalis (apple) ([3]; 25 ppm foliar spray only): 4 | disease control grading, Pyricularia oryzae (rice) ([4]; 25 ppm foliar spray only): 2 (6-25% of disease on untreated plants) | disease control grading, Cercospora arachidicola (peanut) ([5]; 25 ppm foliar spray only): 0 (60-100% of disease on untreated plants) | disease control grading, Plasmopara viticola (vine) ([6]; 25 ppm foliar spray only): 4 | disease control grading, Phytophthora infestans (tomato) ([7]; 25 ppm foliar spray only): 4

CO/C=C(/C(=O)OC)c1ccccc1Oc1cc(C(Cl)(Cl)Cl)nc(Cl)n1 [Compound 139 (Table I)]
disease control grading, Puccinia recondita (wheat) [1, 8]: 4 | disease control grading, Erysiphe graminis hordei (barley) [2, 8]: 0 (60-100% of disease on untreated plants) | disease control grading, Venturia inaequalis (apple) [3, 8]: 0 (60-100% of disease on untreated plants) | disease control grading, Pyricularia oryzae (rice) [4, 8]: 2 (6-25% of disease on untreated plants) | disease control grading, Cercospora arachidicola (peanut) [5, 8]: 4 | disease control grading, Plasmopara viticola (vine) [6, 8]: 4 | disease control grading, Phytophthora infestans (tomato) [7, 8]: 0 (60-100% of disease on untreated plants)

CO/C=C(/C(=O)OC)c1ccccc1Oc1ncc(Cl)cn1 [Compound 67 (Table I)]
disease control grading, Puccinia recondita (wheat) ([1]; 40 ppm foliar spray only): 3 (trace-5% of disease on untreated plants) | disease control grading, Erysiphe graminis hordei (barley) ([2]; 40 ppm foliar spray only): 2 (6-25% of disease on untreated plants) | disease control grading, Venturia inaequalis (apple) ([3]; 40 ppm foliar spray only): 0 (60-100% of disease on untreated plants) | disease control grading, Pyricularia oryzae (rice) ([4]; 40 ppm foliar spray only): 0 (60-100% of disease on untreated plants) | disease control grading, Cercospora arachidicola (peanut) ([5]; 40 ppm foliar spray only): 4 | disease control grading, Plasmopara viticola (vine) ([6]; 40 ppm foliar spray only): 4 | disease control grading, Phytophthora infestans (tomato) ([7]; 40 ppm foliar spray only): 0 (60-100% of disease on untreated plants)

CO/C=C(/C(=O)OC)c1ccccc1Sc1ccc(Cl)cn1 [Compound 14 (Table II), (E-)-methyl 2-[2'-(5"-chloropyridin-2"-ylthio)phenyl]-3-methoxyacrylate]
disease control grading, Puccinia recondita (wheat) [1, 8]: 4 | disease control grading, Erysiphe graminis hordei (barley) [2, 8]: 4 | disease control grading, Venturia inaequalis (apple) [3, 8]: 4 | disease control grading, Pyricularia oryzae (rice) [4, 8]: 3 (trace-5% of disease on untreated plants) | disease control grading, Cercospora arachidicola (peanut) [5, 8]: 4 | disease control grading, Plasmopara viticola (vine) [6, 8]: 4 | disease control grading, Phytophthora infestans (tomato) [7, 8]: 0 (60-100% of disease on untreated plants)
